Reference: patent US8716493B2, “Multicyclic compounds and the use thereof” (Cephalon, Inc., priority 2000, dated 2014)
pIC50: −log10 of the molar value. Counter-ions that a name gives are not always drawn. Like-named read-outs stand apart in the source and are kept apart here.

Target: recombinant human PARP (Homo sapiens, UniProt P09874)
Test: Measurement of PARP enzymatic activity (transfer of radiolabeled ADP-ribose from NAD+ to protein acceptor)
Format: biochemical
Conditions: for pIC50: read-out: PARP IC50; for IC50: PARP IC50 (nM)
Procedure: PARP activity was monitored by transfer of radiolabeled ADP-ribose units from [^32]NAD^+ to a protein acceptor such as histone or PARP itself. […] The reactions were initiated by the addition of 100 μM NAD^+ supplemented with 2 uCi [^32]NAD^+/mL and maintained at room temperature for 12 minutes. […] The amount of acid-insoluble radioactivity, corresponding to polyADP-ribosylated protein, was quantitated in a Wallac MicroBeta scintillation counter.
Single-point inhibition data were calculated by comparing PARP, VEGFR2, or MLK3 activity in the presence of inhibitor to activity in the presence of DMSO only. Inhibition curves for compounds were generated by plotting percent inhibition versus log10 of the concentration of compound. IC50 values were calculated by nonlinear regression using the sigmoidal dose-response (variable slope) equation in GraphPad Prism as follows: y=bottom+(top−bottom)/(1+10^(log IC50^−x)*Hillslope) where y is the % activity at a given concentration of compound, x is the logarithm of the concentration of compound, bottom is the % inhibition at the lowest compound concentration tested, and top is the % inhibition at the highest compound concentration examined. The values for bottom and top were fixed at 0 and 100, respectively. IC50 values were reported as the average of at least three separate determinations.
For some compounds, inhibiting data is presented as percent inhibition at a specified concentration. Compounds are tabulated together with compound number, substituents, and enzyme inhibition data.

Sequence of recombinant human PARP (P09874 whole entry): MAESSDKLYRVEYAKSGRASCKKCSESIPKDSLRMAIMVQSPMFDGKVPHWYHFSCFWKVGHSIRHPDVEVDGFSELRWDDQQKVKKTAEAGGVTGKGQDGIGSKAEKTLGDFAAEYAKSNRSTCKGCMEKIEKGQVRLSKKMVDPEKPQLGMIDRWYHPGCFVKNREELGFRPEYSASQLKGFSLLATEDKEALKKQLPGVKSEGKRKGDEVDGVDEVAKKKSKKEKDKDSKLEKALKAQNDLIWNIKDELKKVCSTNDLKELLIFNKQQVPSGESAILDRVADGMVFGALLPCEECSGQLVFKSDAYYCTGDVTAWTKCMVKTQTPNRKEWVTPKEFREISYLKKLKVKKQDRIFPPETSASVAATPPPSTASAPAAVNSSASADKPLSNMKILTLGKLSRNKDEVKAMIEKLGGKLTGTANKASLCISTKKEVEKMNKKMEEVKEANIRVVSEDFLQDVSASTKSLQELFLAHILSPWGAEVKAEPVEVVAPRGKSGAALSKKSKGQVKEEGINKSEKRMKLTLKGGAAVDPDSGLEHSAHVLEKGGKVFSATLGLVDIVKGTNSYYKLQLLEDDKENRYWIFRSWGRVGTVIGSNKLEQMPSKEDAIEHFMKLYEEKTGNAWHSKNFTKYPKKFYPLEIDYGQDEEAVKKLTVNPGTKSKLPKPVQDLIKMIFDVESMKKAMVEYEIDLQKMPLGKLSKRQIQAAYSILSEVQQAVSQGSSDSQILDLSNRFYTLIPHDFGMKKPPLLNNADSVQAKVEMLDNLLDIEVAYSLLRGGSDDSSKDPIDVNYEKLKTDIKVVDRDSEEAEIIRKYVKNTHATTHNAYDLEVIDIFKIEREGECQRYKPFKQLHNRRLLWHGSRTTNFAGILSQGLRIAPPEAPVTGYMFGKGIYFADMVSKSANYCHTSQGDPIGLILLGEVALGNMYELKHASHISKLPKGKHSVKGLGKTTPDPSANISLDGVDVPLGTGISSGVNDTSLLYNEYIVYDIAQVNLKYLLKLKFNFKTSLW

Compound | pIC50 (Table 2) | further results
O=C(NCCN1CCOCC1)c1ccc2[nH]c3c4c(c5c(c3c2c1)C(=O)NC5=O)CCC4 [Compound 2cn] | 7.59 | 
O=CNCc1ccc2[nH]c3c4c(c5c(c3c2c1)C(=O)NC5=O)CCC4 [Compound 2ce] | 7.47 | 
NCC(=O)N1C(=O)c2c3c(c4[nH]c5ccccc5c4c2C1=O)CCC3 [Compound 1m] |  | pIC50 (Table 1): 7.42
O=C1NC(=O)c2c1c1c(c3[nH]c4ncccc4c23)CCC1 [Compound 8h] |  | pIC50 (Table 4): 8.52
O=C1c2c3c(c4[nH]c5ccccc5c4c2C(=O)N1CCCO)CCC3 [Compound 1e] |  | pIC50 (Table 1): 6.02
CCOCc1ccc2[nH]c3c4c(c5c(c3c2c1)C(=O)NC5=O)CCC4 [Compound 2de] | 7.37 | 
CNCc1ccc2[nH]c3c4c(c5c(c3c2c1)C(=O)NC5=O)CCC4 [Compound 2bt] | 7.60 | 
COc1c(Br)ccc2[nH]c3c4c(c5c(c3c12)C(=O)NC5=O)CCC4 [Compound 14m] |  | pIC50 (Table 18): 7.17
O=C1NC(=O)c2c1c1c(c3[nH]c4ccc(CN5CCCCC5)cc4c23)CCC1 [Compound 2bx] | 7.46 | 
O=C(O)c1ccc2[nH]c3c4c(c5c(c3c2c1)C(=O)NC5=O)CCC4 [Compound 2bd] | 7.07 | 
CN(C)CCN(C)C(=O)c1ccc2[nH]c3c4c(c5c(c3c2c1)C(=O)NC5=O)CCC4 [Compound 2cu] | 6.82 | 
CN(C)CCCOc1ccc2[nH]c3c4c(c5c(c3c2c1)C(=O)NC5=O)CCC4 [Compound 2as] | 7.00 | 
O=C(NCc1cccnc1)c1ccc2[nH]c3c4c(c5c(c3c2c1)C(=O)NC5=O)CCC4 [Compound 2cl] | 7.68 | 
O=C1NC(=O)c2c1c1c(c3[nH]c4cccc(OCCO)c4c23)CCC1 [Compound 14k] |  | pIC50 (Table 18): 7.08
CCN(CC)CCOc1cccc2[nH]c3c4c(c5c(c3c12)C(=O)NC5=O)CCC4 [Compound 14e] |  | pIC50 (Table 18): 6.28
O=C1NC(=O)c2c1c1c(c3[nH]c4ccc(CN5CCOCC5)cc4c23)CCC1 [Compound 2bv] | 7.49 | 
O=C1NC(=O)c2c1c1c(c3[nH]c4ccccc4c23)CCC1 [Compound 1a, 5,7,8,9,10,11-hexahydrocyclopent[a]pyrrolo[3,4-c]carbazole-5(6H), 7-dione] |  | pIC50 (Table 1): 7.44; pIC50 (Table 3): 7.44
O=C1NC(=O)c2c1c1c(c3[nH]c4ccc(F)cc4c23)CCC1 [Compound 2c] | 7.41 | 
O=C1NC(=O)c2c1c1c(c3[nH]c4c(ccc[n+]4[O-])c23)CCC1 [Compound 8l] |  | pIC50 (Table 18): 7.42
O=C1NC(=O)c2c1c1c(c3[nH]c4ccc(-c5csc(CNC(=O)C6CCCC6)n5)cc4c23)CCC1 [Compound 3x] |  | IC50 (Table 2): 52 nM
COc1c(C#N)ccc2[nH]c3c4c(c5c(c3c12)C(=O)NC5=O)CCC4 [Compound 14o] |  | pIC50 (Table 18): 8.15
O=C1NC(=O)c2c1c1c(c3[nH]c4ccc(-c5csc(CNC(=O)C6CC6)n5)cc4c23)CCC1 [Compound 3w] |  | IC50 (Table 2): 49 nM
N#Cc1ccc2c(c1)c1c3c(c4c(c1n2C(=O)[C@@H](N)CCCCN)CCC4)C(=O)NC3 [Compound 6j, 3-Cyano-11-L-lysyl-5,7,8,9,10,11-hexahydrocyclopent[a]pyrrolo[3,4-c]carbazole-7(6H)-one dihydrochloride] |  | pIC50 (Table 3): 6.34
Cc1ccc2[nH]c3c4c(c5c(c3c2c1)C(=O)NC5=O)CCC4 [Compound 2bf] | 7.09 | 
O=C1NC(=O)c2c1c1c(c3[nH]c4ccc(CN5CCCC5)cc4c23)CCC1 [Compound 2bw] | 7.46 | 
CN(C)CCCNC(=O)c1ccc2[nH]c3c4c(c5c(c3c2c1)C(=O)NC5=O)CCC4 [Compound 2ch] | 7.48 | 
COCCNC(=O)c1ccc2[nH]c3c4c(c5c(c3c2c1)C(=O)NC5=O)CCC4 [Compound 2co] | 7.74 | 

Continued, in another order:

pIC50 (Table 2) | Compound | further results
7.25 | CCCCC(=O)NCc1nc(-c2ccc3[nH]c4c5c(c6c(c4c3c2)C(=O)NC6=O)CCC5)cs1 [Compound 3v] | 
7.68 | CC(Br)C(=O)c1ccc2[nH]c3c4c(c5c(c3c2c1)C(=O)NC5=O)CCC4 (centres unmarked) [Compound 2f] | 
7.89 | NCc1ccc2[nH]c3c4c(c5c(c3c2c1)C(=O)NC5=O)CCC4 [Compound 2p, 3-(Aminomethyl)-5,7,8,9,10,11-hexahydrocyclopent[a]pyrrolo[3,4-c]carbazole-5(6H), 7-dione hydrochloride] | 
7.33 | CC(=O)Nc1nc(-c2ccc3[nH]c4c5c(c6c(c4c3c2)C(=O)NC6=O)CCC5)c[nH]1 [Compound 3l] | 
7.25 | CCC(=O)NCc1nc(-c2ccc3[nH]c4c5c(c6c(c4c3c2)C(=O)NC6=O)CCC5)cs1 [Compound 3s] | 
7.70 | CCNC(=O)NCc1nc(-c2ccc3[nH]c4c5c(c6c(c4c3c2)C(=O)NC6=O)CCC5)cs1 [Compound 3o] | 
7.34 | CC(C)(C)OC(=O)N[C@@H](CCCNc1nc(-c2ccc3[nH]c4c5c(c6c(c4c3c2)C(=O)NC6=O)CCC5)cs1)C(=O)OC(C)(C)C [Compound 3e] | 
7.49 | CC(C)C(=O)NCc1nc(-c2ccc3[nH]c4c5c(c6c(c4c3c2)C(=O)NC6=O)CCC5)cs1 [Compound 3t] | 
7.92 | CN1N=C(c2ccc3[nH]c4c5c(c6c(c4c3c2)C(=O)NC6=O)CCC5)CCC1=O [Compound 4m] | 
8.70 | O=C(O)CCCC(=O)c1ccc2[nH]c3c4c(c5c(c3c2c1)C(=O)NC5=O)CCC4 [Compound 4n] | 
7.48 | CC(C)(C)OC(=O)NCCCC(=O)NCc1ccc2[nH]c3c4c(c5c(c3c2c1)C(=O)NC5=O)CCC4 [Compound 2w, 3-(N-(4-(N-Boc-amino)butanoyl)aminomethyl)-5,7,8,9,10,11-hexahydrocyclopent[a]pyrrolo[3,4-c]carbazole-5(6H), 7-dione] | 
7.92 | CC(C)(C)OC(=O)[C@@H]1CCCN1CC(=O)c1ccc2[nH]c3c4c(c5c(c3c2c1)C(=O)NC5=O)CCC4 [Compound 4b] | 
7.77 | O=C1NC(=O)c2c1c1c(c3[nH]c4ccc(-c5csc(NC6OC(CO)C(O)C(O)C6O)n5)cc4c23)CCC1 (centres unmarked) [Compound 3ab] | 
7.80 | CC(C)(C)OC(=O)NCCNC(=O)CCC(=O)c1ccc2[nH]c3c4c(c5c(c3c2c1)C(=O)NC5=O)CCC4 [Compound 4d] | 
7.80 | O=C(CCC(=O)N1CCCC1)c1ccc2[nH]c3c4c(c5c(c3c2c1)C(=O)NC5=O)CCC4 [Compound 4t] | 
7.68 | CCN(CC)CC(=O)c1ccc2[nH]c3c4c(c5c(c3c2c1)C(=O)NC5=O)CCC4 [Compound 2j] | 
7.89 | NC(=O)[C@@H]1CCCN1C(=O)CCC(=O)c1ccc2[nH]c3c4c(c5c(c3c2c1)C(=O)NC5=O)CCC4 [Compound 4o] | 
6.78 | O=C1NC(=O)c2c1c1c(c3[nH]c4ccc(CNCc5ccc6[nH]c7c8c(c9c(c7c6c5)C(=O)NC9=O)CCC8)cc4c23)CCC1 [Compound 2q, Bis-[5(6H), 7-dioxo-5,7,8,9,10,11-hexahydrocyclopent[a]pyrrolo[3,4-c]carbazol-3-ylmethyl]amine hydrochloride] | 
8.52 | O=C(O)CCC(=O)c1ccc2[nH]c3c4c(c5c(c3c2c1)C(=O)NC5=O)CCC4 [Compound 2m] | 
7.59 | O=C(CCC(=O)N1CCCCCCC1)c1ccc2[nH]c3c4c(c5c(c3c2c1)C(=O)NC5=O)CCC4 [Compound 4s] | 
7.48 | CC(C)(C)OC(=O)NCC(=O)NCc1ccc2[nH]c3c4c(c5c(c3c2c1)C(=O)NC5=O)CCC4 [Compound 2v, 3-(N-(2-(N-Boc-amino)acetyl)aminomethyl)-5,7,8,9,10,11-hexahydrocyclopent[a]pyrrolo[3,4-c]carbazole-5(6H), 7-dione] | 
7.89 | O=C(CCC(=O)N1CCOCC1)c1ccc2[nH]c3c4c(c5c(c3c2c1)C(=O)NC5=O)CCC4 [Compound 4f] | 
